Assays:
[1] = test system: procollagen type I expression in CFs; test: Procollagen type I expression levels in cardiac fibroblasts, western blot; type: cell-based, rat; details: for procollagen type I expression levels: 5 μM for 48 h, absence of TGF-β1, vs. control; for procollagen type I expression levels induced by TGF-β1: derivatives 5 μM (TSA 0.1 μM) for 48 h in presence of TGF-β1
Experimental: In CFs collagen type I secretion is a hallmark of cardiac fibrosis development, which is regulated by HDACs. […] For this purpose, a fixed concentration of 5a, 6a, 7a and 8a derivatives in presence/absence of TGF-β1 were studied, and procollagen type I expression levels were measured by using the western blot technique. TSA was used as control and also for comparative purposes. In Figure 5 (A and B), in the upper panel representative photographs of procollagen type I expression level and GAPDH (used as charge control) are shown, whereas in the lower panel the graphic analyses are observed.
(§1) For the analysis of the protein expression of histone H4–acetylated (ac–H4) and total H4 histone, a number of 1 × 10^6 of CFs seeded in 60 mm plates was used, which were incubated with the inhibitory compounds at a concentration of 10 μM, in the absence/presence of TGF–β1(5ng/mL) for 4 h. Subsequently, total histones were extracted by the technique of saline precipitation (high salt extraction). Briefly, CFs were scraped from the plates with 1 mL of cold PBS transferring their contents to Eppendorf tubes to be centrifuged for 60 s at 1500 rpm at 4 °C and re–suspended in 400 μL of cold buffer A (10 mM 4-(2-hydroxyethyl)-1-piperazineethanesulfonic acid-KOH (HEPES-KOH) adjusted to pH 7.9, 1.5 mM MgCl2, 10 mM KCl, 0.5 mM dithiothreitol and 0.2 mM phenylmethylsulfonyl fluoride (PMSF). The suspension is left on ice for 10 min and then placed in the vortex for 10 s. The samples were centrifuged for 60 s, subsequently discarding the supernatant fraction. The obtained pellet was re-suspended in 60 μL of cold C buffer (20 mM HEPES-KOH adjusted to pH 7.9, 25% glycerol, 420 mM NaCl, 1.5 mM MgCl2, 0.2 mM EDTA, dithiothreitol 0.5 mM and 0.2 mM PMSF) and placed on ice for 20 min for saline precipitation. Cell debris is removed by centrifugation for 120 s at 1500 rpm at 4 °C and the supernatant fraction, which contains the DNA binding proteins, is stored at minus 20 °C. For the analysis of α–SMA and procollagen type I expression levels, 3×10^5 CFs seeded in 35 mm plates were used, which were incubated together with inhibitor compounds at a 5 μM, in the absence/presence of TGF–β1 (5 ng/mL) for 48 h. To obtain the total proteins, the CFs were washed three times with cold PBS, then scraped and lysed with 50 μL of radio inmuno-precipitation assay (RIPA) lysis buffer (10 mM Tris–HCl pH 7.2, 5 mM EDTA, 150 mM NaCl, Triton X–100 1%, sodium dodecyl sulfate (SDS) 0.1%, deoxycholate 1%, leupeptin 2 μg/mL, aprotinin 10mM, PMSF 1mM and Na3VO4 100μM). The solution was centrifuged for 15 min at 10,000 rpm and at 4 °C. The supernatant fraction containing the total proteins was stored at minus 20 °C. The concentration of proteins obtained was determined by spectrophotometry at 570 nm, using the Bradford method (Bio-Rad, Hercules, CA, USA).
CFs proteins (25 μg), were subjected to 10% sodium dodecyl sulfate-polyacrylamide gel electrophoresis and finally transferred onto a nitrocellulose membrane (Millipore, Billerica, MA, USA). The membrane was washed twice with tris–buffered saline solution containing 0.1% Tween 20 (TBST). After being blocked with TBST containing 5% nonfat milk for 40 min, the membrane was incubated with primary antibodies in TBST/1% nonfat milk at 4 °C overnight. The membrane was washed three times with TBST for a total of 15 min and then incubated with primary antibodies (ac–H4, H4 total, α-SMA, procollagen type I and GAPDH). Then the membrane was incubated with goat anti–rabbit or anti-mouse IgG antibodies conjugated with horseradish (diluted 1:1000) for 1 h at room temperature. Signals were developed with ECL reagents and exposure to photographic film.
Figure 5 CTz non–substituted inhibit procollagen type I expression levels in cardiac fibroblasts. […] (B) CFs were exposed to 5a, 6a, 7a and 8a at 5 μM for 48 h in presence of TGF–β1. Procollagen type I expression levels were measured by western blot. GAPDH was used as control load.

[2] = test system: histone H4-acetylated in CFs; test: Histone H4-acetylated expression in cardiac fibroblasts, western blot; type: cell-based, rat; details: 5 μM for 8 h, vs. control
Experimental: For this purpose, CFs of neonatal rats were incubated in the presence/absence of the 5a, 6a, 7a and 8a derivatives, and the expression of histone H4–acetylated was measured using the western blot technique.
as §1, with “which were incubated with the inhibitory compounds at a concentration of 10 μM, in the absence/presence of TGF–β1(5ng/mL) for 4 h.” left out
CFs proteins (25 μg), were subjected to 10% sodium dodecyl sulfate-polyacrylamide gel electrophoresis and finally transferred onto a nitrocellulose membrane (Millipore, Billerica, MA, USA). The membrane was washed twice with tris–buffered saline solution containing 0.1% Tween 20 (TBST). […]
Figure 3 CTz non–substituted derivatives inhibit histone H4 acetylation. […] Nuclear extracts were isolated and histone H4 acetylation expression levels were measured by western blot. […]

| SMILES | procollagen type I expression levels [1] | procollagen type I expression levels induced by TGF-β1 [1] | histone H4-acetylated expression [2] |
| --- | --- | --- | --- |
| O=C(CCCCC1CCSS1)Nc1nc(-c2cc3ccccc3oc2=O)cs1 (centres unmarked) [Compound 5a, 5-[1,2]-Dithiolan-3-yl-N-[4-(2-oxo-2H-chromen-3-yl)-thiazol-2-yl]-pentanamide] | decreased in a statistically significant manner | decreased, close to control levels | increase in a statistically significant manner |
| O=C(Nc1nc(-c2cc3ccccc3oc2=O)cs1)c1ccc(O)c(O)c1 [Compound 6a] | decreased in a statistically significant manner | decreased, close to control levels | increase in a statistically significant manner |
| O=C(O)CCCCC(=O)Nc1nc(-c2cc3ccccc3oc2=O)cs1 [Compound 7a] | had no effect |  | had no effect |
| O=C(CCCCC(=O)Nc1nc(-c2cc3ccccc3oc2=O)cs1)NO [Compound 8a, 5-[4-(2-Oxo-2H-chromen-3-yl)-thiazol-2-yl-carbamoyl]-N-hydroxypentanamide] | decreased in a statistically significant manner | decreased, close to control levels | increase in a statistically significant manner |
